# How the values were obtained:
# MDA-MB435 = assay: Sulforhodamine B (SRB) assay; format: cell-based; conditions: Homo sapiens, MDA-MB-435, MDA-MB435 cells, 48 h
# Experimental: (§1) The human MDA-MB-231, MCF7, MDA-MB-468, RPMI-8226 and HeLa cell lines were purchased from ATCC and maintained in Dulbecco's Modified Eagle Medium (DMEM)—high glucose supplemented with 10% fetal bovine serum (FBS) and antibiotics/antimycotics. Cell line authentication was carried out by Genetica DNA Laboratories (Burlington, NC) using a short tandem repeat (STR) profiling method (March 2015; July 2015; September 2016). Melanoma cells E-055 (MZ-Mel-3), E-097 (Mel-SOE), E-112 (UKRV-Mel-38), E-157 (UKRV-Mel-17) were obtained from the European Searchable Tumour Line Database (ESTDAB) cell bank (a kind gift of Dr. Graham Pawelec, Tubingen University, Germany). MDA-MB-435 was purchased from the Division of Cancer Treatment and Diagnosis Tumor Repository. All melanoma cells were cultured in Roswell Park Memorial Institute (RPMI) medium supplemented with 10% FBS and P/S/antimycotics. Primary human epidermal melanocytes from normal adult abdominal skin were purchased from ATCC (cat # PCS-200–013) and Cell Applications (cat#104-05a). The melanocytes were cultured in the media supplied by the companies.
# (§2) The SRB assay was used to assess drug-induced cytotoxicity and cell proliferation as previously described[2],[33],[34] with a few modifications. Briefly, cells were plated 10,000 to 25,000 cells/cm^2 in 96-well plates (100 µl medium) and allowed to adhere overnight. The cell counts were different for each cell line to ensure optimal cell growth for the duration of the assay. Eight different concentrations of compound solutions using 2–4 times serial dilutions (100 µl). Cells were then incubated for an additional 48 h and then fixed with 100 µl ice-cold 10% (w/v) trichloroacetic acid (TCA) (without removing the cell medium, final concentration, 3.3% of TCA) and stained with 0.4% SRB (w/v) in 1% acetic acid (v/v). The relative growth rate (%) was calculated for each of the compound concentrations according to the following formula: 100 * (T − T0)/(C − T0), in which T is the optical density (OD) after exposure to a certain concentration of the compound after 48 h, T0 is the OD at the start of drug exposure (time zero) and C is the control growth. The GI50 for each compound was obtained from a non-linear sigmoidal dose–response (variable slope) curve fitted by GraphPad Prism v.4.03 software.
# Mel-SOE = assay: Sulforhodamine B (SRB) assay; format: cell-based; conditions: Mel-SOE melanoma cells, 48 h
# Experimental: as §1, §2
# MZ-Mel-3 = assay: Sulforhodamine B (SRB) assay; format: cell-based; conditions: MZ-Mel-3 melanoma cells, 48 h
# Experimental: as §1, §2
# RPMI-8226 = assay: Sulforhodamine B (SRB) assay; format: cell-based; conditions: Homo sapiens, Supplementary Table S1, SRB
# Experimental: as §1, §2
# UKRV-Mel-17 = assay: Sulforhodamine B (SRB) assay; format: cell-based; conditions: UKRV-Mel-17 melanoma cells, 48 h
# Experimental: as §1, §2
# MDA-MB468 = assay: Sulforhodamine B (SRB) assay; format: cell-based; conditions: Homo sapiens, MDA-MB-468, MDA-MB468 breast cancer cells, 48 h
# Experimental: as §1, §2
# UKRV-Mel-38 = assay: Sulforhodamine B (SRB) assay; format: cell-based; conditions: UKRV-Mel-38 melanoma cells, 48 h
# Experimental: as §1, §2
# MCF7 = assay: Sulforhodamine B (SRB) assay; format: cell-based; conditions: Homo sapiens; for IC50: MCF7, Supplementary Table S1, SRB; for GI50: MCF7 breast cancer cells, 48 h, SRB
# Experimental: as §1, §2
# [1] = system: NCI-60 panel of cancer cell lines; assay: NCI-60 panel, SRB colorimetric assay; format: cell-based; conditions: 10 μM single dose and five dose data (Supplemental Figs. S1–S8)
# Experimental: Supplementa ry Figure l egend
# Supplementary Figures S 1- S4.CTR -21 effectivel y prev ent proliferation o f a rep resent ative set […]
# of cancer cell lines (NC I-60 panel). Fi gu re S 1: 10 μM of CTR -21 was used against the panel of […]
# NC I-60 cancer cell lines including: six leukemia cell lines, nine non-small cell lung cancer cell […]
# lines, seven colorectal cancer cell lines, six CNS cancer cell lines, nine mel anoma cell lines, seven ovari an can cer cell lines, seven ren al can cer cell lines, two prostate cancer cell lines and six breast cancer cell lines, utilizing the sulforhodamine B (SRB) colorimetric assa y. Fi gu re S 2- […]
# S4: Five dose data for CTR-21.
# Supplementary Figures S 5- S8.CTR -32effectivel y prev ent s prolifer ation of a rep resent ative set […]
# of cancer cell lines (NC I-60 panel). Fi gu re S 5: 10 μM of CTR -32 was used against the panel of […]
# six breast cancer cell lines, utilizing the sulforhodamine B (SRB) colorimetric assa y. Fi gu re S 6- […]
# S8: Five dose data for CTR-32.
# Supplementa ry Figure S9.CTR -21 and CTR-32 inhibit microtubule pol ymerization in vitro .
# Spontaneous pol ymerizat ion of 20µM porcine tubulin was initiated with the addition of 1 […]
# mmol/L GTP at 37°C and monitored ever y minut e for 60 minutes in the presence of the […]
# indicated concentration of CTR-21, CTR-32, nocodazole, paclitaxel, or a DMSO vehicle […]
# [2] = Toxicity in mice (body weight, AST/ALT); format: in vivo, mouse; conditions: for liver toxicity (AST and ALT): C57BL/6 mice, up to maximum doses 10 mg (CTR-21) and 50 mg (CTR-32); for toxicity in mice: mice treated at 10 mg/kg
# Experimental: All animal experiments, including animal handling, care, treatments and endpoint determination were reviewed and approved by the Animal Care Committee (ACC) at Laurentian University (Sudbury, Ontario, Canada). We hereby confirm that all animal-based experiments were performed in compliance with relevant guidelines and regulations, including the ARRIVE guidelines (http://www.nc3rs.org.uk/page.asp?id=1357). Weight measurement and AST/ALT experiments were carried out as before.
# Neither CTR-21 nor CTR-32 treatment notabl y affect ed the bod y weight of mice treated with CTR-21 or CTR-32. Mice ( C57B L/6) were inject ed (i.p.) ev er y three da ys with the indicated doses of CTR -21 or CTR-32, along with vehicle control. […]
# doses used in this experiment (i.e., 10 mg and 50 mg for CTR-21 and CTR-32, respectivel y).
# There is no si gnificant changes of AST and ALT between different groups , including vehicl e
smiles,measurement,setting,value
"CCOc1ccccc1C(=O)/C=C/c1cc2ccccc2[nH]c1=O [CTR-32, (E)-3-(3-(2-ethoxyphenyl)-3-oxoprop-1-enyl)quinolin-2(1H)-one]",GI50,MDA-MB435,13 ± 5 nM
same,GI50,Mel-SOE,33 ± 9 nM
same,GI50,MZ-Mel-3,6 ± 2 nM
same,IC50,RPMI-8226,6.29 ± 1.43 nM
same,GI50,UKRV-Mel-17,18 ± 3 nM
same,GI50,MDA-MB468,26 nM
same,GI50,UKRV-Mel-38,22 ± 3 nM
same,IC50,MCF7,46.4 ± 3.61 nM
same,GI50,MCF7,27 ± 6 nM
same,activity against NCI-60 panel,[1],highly effective
same,liver toxicity (AST and ALT),[2],do not show notable liver
same,ALT,"[2]; female C57BL/6 mice, 30 mg/kg",103.54±61.53 U/L
same,AST,"[2]; female C57BL/6 mice, 30 mg/kg",253.74±117.87 U/L
same,AST/ALT,"[2]; female C57BL/6 mice, 30 mg/kg",2.45
same,ALT,"[2]; female C57BL/6 mice, 50 mg/kg",87.81±25.42 U/L
same,AST,"[2]; female C57BL/6 mice, 50 mg/kg",268.16±136.88 U/L
same,AST/ALT,"[2]; female C57BL/6 mice, 50 mg/kg",3.05
same,ALT,"[2]; male C57BL/6 mice, 30 mg/kg",110.30±44.56 U/L
same,AST,"[2]; male C57BL/6 mice, 30 mg/kg",288.49±184.97 U/L
same,AST/ALT,"[2]; male C57BL/6 mice, 30 mg/kg",2.62
same,ALT,"[2]; male C57BL/6 mice, 50 mg/kg",96.57±45.23 U/L
same,AST,"[2]; male C57BL/6 mice, 50 mg/kg",217.49±39.91 U/L
same,AST/ALT,"[2]; male C57BL/6 mice, 50 mg/kg",2.25
same,toxicity in mice,[2],no ill-effects observed
"COc1ccccc1C(=O)/C=C/c1cc2cccc(OC)c2[nH]c1=O [CTR-21, (E)-8-methoxy-3-(3-(2-methoxyphenyl)-3-oxoprop-1-enyl) quinolin-2(1H)-one]",GI50,MDA-MB435,7 ± 2 nM
same,GI50,Mel-SOE,27 ± 5 nM
same,GI50,MZ-Mel-3,6 ± 1 nM
same,IC50,RPMI-8226,5.34 ± 0.89 nM
same,GI50,UKRV-Mel-17,9 ± 2 nM
same,GI50,MDA-MB468,29 ± 10 nM
same,GI50,UKRV-Mel-38,13 ± 3 nM
same,IC50,MCF7,75.1 ± 3.07 nM
same,GI50,MCF7,16 ± 5 nM
same,activity against NCI-60 panel,[1],highly effective
same,liver toxicity (AST and ALT),[2],do not show notable liver
same,ALT,"[2]; female C57BL/6 mice, 1 mg/kg",118.03±25.82 U/L
same,AST,"[2]; female C57BL/6 mice, 1 mg/kg",249.47±77.12 U/L
same,AST/ALT,"[2]; female C57BL/6 mice, 1 mg/kg",2.12
same,ALT,"[2]; female C57BL/6 mice, 5 mg/kg",142.17±45.44 U/L
same,AST,"[2]; female C57BL/6 mice, 5 mg/kg",265.03±97.76 U/L
same,AST/ALT,"[2]; female C57BL/6 mice, 5 mg/kg",1.86
same,ALT,"[2]; female C57BL/6 mice, 10 mg/kg",142.98±45.61 U/L
same,AST,"[2]; female C57BL/6 mice, 10 mg/kg",319.215±101.93 U/L
same,AST/ALT,"[2]; female C57BL/6 mice, 10 mg/kg",2.23
same,ALT,"[2]; male C57BL/6 mice, 1 mg/kg",128.49±60.78 U/L
same,AST,"[2]; male C57BL/6 mice, 1 mg/kg",264.42±91.94 U/L
same,AST/ALT,"[2]; male C57BL/6 mice, 1 mg/kg",2.06
same,ALT,"[2]; male C57BL/6 mice, 5 mg/kg",142.71±58.30 U/L
same,AST,"[2]; male C57BL/6 mice, 5 mg/kg",228.82±42.23 U/L
same,AST/ALT,"[2]; male C57BL/6 mice, 5 mg/kg",1.60
same,ALT,"[2]; male C57BL/6 mice, 10 mg/kg",123.93±49.96 U/L
same,AST,"[2]; male C57BL/6 mice, 10 mg/kg",242.62±102.65 U/L
same,AST/ALT,"[2]; male C57BL/6 mice, 10 mg/kg",1.96
same,toxicity in mice,[2],no ill-effects observed

# — paper PMC8566451, “Lead optimization of novel quinolone chalcone compounds by a structure–activity relationship (SAR) study to increase efficacy and metabolic stability” (Scientific Reports, 2021)
